According to US20090131484A1, “PREVENTIVE OR REMEDY FOR BOWEL DISEASE” (ASTELLAS PHARMA INC, priority 2005, published 2009):

Columns and labels:
[1] = tested on: cholera toxin-induced intestinal hypersecretion; conditions: mouse, in vivo; for effect on cholera toxin-induced intestinal hypersecretion: iv, 1 mg/kg
[2] = tested on: antigen-induced diarrhea; test: Mouse antigen-induced diarrheal model; type: in vivo; conditions: Balb/c mice, OVA
Procedure: Balb/c female mice were used in this test. The animals were immunized through intraperitoneal administration of 50 μg of ovalbumin (OVA) and 1 mg of aluminium gel (alum), and after 2 weeks from the first immunization, they were again immunized under the same condition. […] The diarrheal condition was checked 1 hour after the OVA administration.

[3] = tested on: TNBS-induced chronic colitis; test: Rat TNBS-induced chronic colitis model; conditions: Wistar rats
[4] = tested on: restrictive stress-induced diarrhea; test: Rat stress-induced diarrheal model; type: in vivo; conditions: Wister rats
Procedure: Wister male rats were used in this test. The animals were restrained in individual restrictive cages for 4 hours and given stress thereby to have diarrhea. […] Each group consisted of 19 to 20 animals. The statistical pharmaceutical potency analysis of the test compound was attained as a significant chi-square test, and its multiplicity was corrected by Bonferroni multiple comparison.

[5] = tested on: oxazolone-induced acute colitis; test: Rat oxazolone-induced acute colitis model; conditions: DA rats
[6] = tested on: T84 cells; test: Chloride-dependent short circuit current (Isc) in human intestinal epithelial cells, Ussing system; type: cell-based; conditions: for effect on forskolin-induced Isc increase: forskolin 10 μM; for effect on thapsigargin-induced continuous Isc increase / effect on transient Isc increase seen before the sustained Isc increase: thapsigargin 1 μM
Procedure: It is known that water secretion from epithelial cells is correlated with chloride ion secretion, and the effect to water secretion from epithelial cells may be evaluated through chloride-dependent current measurement.
T84 cells, a human colon epithelial cell-derived cell line, were purchased from American Type Culture Collection (ATCC, USA). T84 cells (3×10^5 cells/well) were cultured on a polyethylenic mesh insert (Transwell® by Corning, USA)) on a 6-well microplate for 10 to 12 days. As the culture medium, 5% bovine calf serum-containing DMEM/F-12 (Gibco, USA) was used. The cultured T84 cells were set in the sample chamber of an Ussing short-circuit current measuring system, and the chloride-dependent short circuit current (Isc) was measured. Isc was induced by adding thapsigargin (1 μM) or forskolin (10 μM) to the T84 cell monolayer specimen at its top on the membrane side thereof. […] In each test, the data obtained by DPC addition were taken as chloride-dependent Isc base line data, and the effect of each test compound was revised.

## CN1C2CCCC1CC(NC(=O)c1nn(C)c3ccccc13)C2 (centres unmarked) [Gra, granisetron, reference compound]
[1]
  effect on cholera toxin-induced intestinal hypersecretion: effective

## CN(C)C(=O)C(CCN1CCC(O)(c2ccc(Cl)cc2)CC1)(c1ccccc1)c1ccccc1 [Lop, loperamide, reference compound]
[1]
  effect on cholera toxin-induced intestinal hypersecretion: effective

## C[C@]12C=CC(=O)C=C1CC[C@@H]1[C@@H]2[C@@H](O)C[C@@]2(C)[C@H]1CC[C@]2(O)C(=O)CO [Pred, prednisolone, reference compound]
[2]; 10 mg/kg po 1 hour before OVA
  effect on antigen-induced diarrhea (diarrheal symptom): almost completely inhibited

## O=C(O)c1cc(/N=N/c2ccc(S(=O)(=O)Nc3ccccn3)cc2)ccc1O [SSZ, sulfasalazine, reference compound]
[3]; 100 mg/kg po once a day
  effect on TNBS-induced colitis model: showed a relieving effect
[3]; TNBS colitis
  effect relative to that of the compound A (weaker): 1/500

## Cc1cc(C)c(C(=O)Nc2ccc(-n3nc(C(F)(F)F)cc3C(F)(F)F)cc2)cn1 [compound A, 4,6-Dimethyl-4′-[3,5-bis(trifluoromethyl)-1H-pyrazol-1-yl]nicotinanilide]
[2]; 3 or 10 mg/kg po 1 hour before OVA
  effect on incidence rate of antigen-induced diarrhea: dose-dependently inhibited
[4]; 10 mg/kg oral administration group
  effect on incidence rate of restrictive stress-induced diarrhea: significant inhibition
[4]; 1.0 or 10 mg/kg po 24 hours and 1 hour before 4 hours restraint
  effect on incidence rate of restrictive stress-induced diarrhea: dose-dependently inhibited
[1]; po
  effect on cholera toxin-induced intestinal hypersecretion (ileal loop weight per unit length): dose-dependently inhibited
  oral dose at which inhibition of cholera toxin-induced intestinal hypersecretion was significant: ≥ 0.3 mg/kg
[3]; 0.3 mg/kg po once a day
  effect on MPO activity exacerbation: inhibition of MPO activity exacerbation
  effect on diarrheal symptom: diarrheal symptom relief
  effect on intestinal tissue weight increase: inhibition of intestinal tissue weight increase
[3]; 0.3 mg/kg po once a day, 15 days after colitis induction
  effect on disease activity index: significant improvement effect
[5]; at least 0.1 mg/kg oral administration
  effect on diarrheal symptom: almost completely inhibited
[5]; oral 0.1, 1.0 or 10 mg/kg
  effect on MPO activity promotion: MPO activity promotion inhibition
  effect on diarrheal symptom: diarrheal symptom relief
  effect on intestinal tissue weight increase: intestinal tissue weight increase inhibition
[5]; oral 0.1, 1.0 or 10 mg/kg, 24 hours after colitis onset
  effect on disease activity index: significant improvement effect
[5]; oxazolone colitis
  dose for diarrhea-inhibiting effect relative to dose for colitis symptom relieving effect: about 1/100
[6]
  effect on forskolin-induced Isc increase: dose-dependently inhibited
  effect on thapsigargin-induced continuous Isc increase: inhibited
  effect on transient Isc increase seen before the sustained Isc increase: did not affect

## Clc1ccc(COC(Cn2ccnc2)c2ccc(Cl)cc2Cl)cc1 (centres unmarked) [econazole, reference compound]
[6]
  effect on forskolin-induced Isc increase: dose-dependently inhibited
  effect on thapsigargin-induced continuous Isc increase: inhibited
  effect on transient Isc increase seen before the sustained Isc increase: did not affect
